Measurements: ChEMBL document CHEMBL1201862, “PubChem BioAssay data set” (2004)
The source made the active and inactive calls.

Assays:
[1] = molecular target: T1, Corticotropin-releasing factor receptor 2/Corticotropin-releasing factor-binding protein (Homo sapiens, UniProt P24387+Q13324); experiment: activators of CRF receptor 2 with binding protein – uHTS hits, confirmation (AID 602473); type: functional; details: read-out: EC50_Mean
T1 sequence (Q13324 whole entry): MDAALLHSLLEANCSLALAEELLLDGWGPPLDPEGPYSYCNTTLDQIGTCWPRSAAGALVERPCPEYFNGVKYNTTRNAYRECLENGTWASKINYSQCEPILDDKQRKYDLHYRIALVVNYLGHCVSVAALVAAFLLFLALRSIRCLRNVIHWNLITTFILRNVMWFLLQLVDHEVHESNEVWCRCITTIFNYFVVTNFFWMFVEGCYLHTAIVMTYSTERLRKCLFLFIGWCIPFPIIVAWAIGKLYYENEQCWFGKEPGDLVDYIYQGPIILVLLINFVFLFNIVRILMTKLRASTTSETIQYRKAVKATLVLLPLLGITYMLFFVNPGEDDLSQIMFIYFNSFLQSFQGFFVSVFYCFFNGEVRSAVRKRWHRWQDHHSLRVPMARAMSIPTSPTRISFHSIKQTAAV
T1 sequence (P24387 whole entry): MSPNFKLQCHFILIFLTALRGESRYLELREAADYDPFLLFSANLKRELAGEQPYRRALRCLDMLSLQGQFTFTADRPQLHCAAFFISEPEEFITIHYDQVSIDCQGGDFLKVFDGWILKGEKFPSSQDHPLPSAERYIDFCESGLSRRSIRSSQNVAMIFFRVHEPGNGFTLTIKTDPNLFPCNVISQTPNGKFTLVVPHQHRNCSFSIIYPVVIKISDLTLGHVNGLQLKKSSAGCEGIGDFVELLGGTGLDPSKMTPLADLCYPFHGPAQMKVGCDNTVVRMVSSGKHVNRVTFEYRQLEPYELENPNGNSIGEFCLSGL

[2] = tested on: Streptococcus sp. 'group A'; experiment: growth inhibition of control SK(-) GAS strain, dose response, counter-screen for streptokinase expression inhibitor project, luminescence, kanamycin, BacTiterGlo, confirmation (AID 1900); type: functional, organism-based
Streptokinase A = molecular target: T2, Streptokinase A (Streptococcus pyogenes serotype M1, UniProt P10520); experiment: S. pyogenes streptokinase expression inhibitors, potency, dose response, plasminogen activation absorbance, OD405 (AID 1914); type: functional, Streptococcus pyogenes M1 GAS;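 note: secreted streptokinase activity via plasminogen activation per viability signal from cell pellet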
T2 sequence (P10520 whole entry): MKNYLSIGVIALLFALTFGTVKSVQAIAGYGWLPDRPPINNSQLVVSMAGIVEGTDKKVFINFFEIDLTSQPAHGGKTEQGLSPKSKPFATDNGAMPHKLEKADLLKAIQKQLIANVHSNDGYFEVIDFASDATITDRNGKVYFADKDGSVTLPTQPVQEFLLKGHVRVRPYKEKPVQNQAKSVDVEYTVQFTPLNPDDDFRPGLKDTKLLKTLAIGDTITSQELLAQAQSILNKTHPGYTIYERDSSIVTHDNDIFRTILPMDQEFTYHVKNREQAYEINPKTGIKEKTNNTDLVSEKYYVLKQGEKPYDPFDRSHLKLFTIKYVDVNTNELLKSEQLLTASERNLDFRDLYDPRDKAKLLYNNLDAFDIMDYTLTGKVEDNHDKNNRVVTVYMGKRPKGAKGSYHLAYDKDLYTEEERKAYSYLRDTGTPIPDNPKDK

Streptococcus = experiment: Group A Streptococcus viability loss, dose response, counter-screen for streptokinase expression inhibitor project, luminescence, BacTiterGlo (AID 1915); type: functional, organism-based;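 note: potency for reduction of bacterial viability or growth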
[3] = molecular target: T3, Heat shock factor protein 1 (Mus musculus, UniProt P38532); experiment: inhibition of MG132-induced HSE-luciferase signal, confirmation, cell-based, NIH3T3, luminescence, dose retest (AID 2382); type: functional;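 note: NIH3T3 fibroblasts with HSF1-driven luciferase reporter stressed by proteasome inhibitor MG132; luminescence from HSF1-driven luciferase expression after 8 hours of MG132 stress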
T3 sequence (P38532 whole entry): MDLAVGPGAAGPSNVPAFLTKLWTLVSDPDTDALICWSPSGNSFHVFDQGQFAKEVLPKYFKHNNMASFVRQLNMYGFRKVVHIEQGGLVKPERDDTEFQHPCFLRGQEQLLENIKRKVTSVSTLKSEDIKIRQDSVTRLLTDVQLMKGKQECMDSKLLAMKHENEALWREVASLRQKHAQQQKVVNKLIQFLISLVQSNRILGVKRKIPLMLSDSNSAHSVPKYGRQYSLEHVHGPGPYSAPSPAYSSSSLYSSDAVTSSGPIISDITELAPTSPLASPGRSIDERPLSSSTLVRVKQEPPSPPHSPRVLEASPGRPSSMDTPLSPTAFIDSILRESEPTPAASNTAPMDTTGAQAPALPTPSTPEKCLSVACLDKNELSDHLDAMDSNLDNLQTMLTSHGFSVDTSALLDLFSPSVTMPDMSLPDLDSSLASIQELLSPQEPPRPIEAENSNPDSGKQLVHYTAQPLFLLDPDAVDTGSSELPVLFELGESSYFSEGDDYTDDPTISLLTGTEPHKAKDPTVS

[4] = molecular target: T4, Rac GTPase-activating protein 1 (Homo sapiens, UniProt Q9H0H5); experiment: MgcRacGAP GTPase-activating activity inhibitors, confirmation, biochemical, ADP Hunter fluorescence, primary and confirmatory (AID 624330); type: functional
T4 sequence (Q9H0H5 whole entry): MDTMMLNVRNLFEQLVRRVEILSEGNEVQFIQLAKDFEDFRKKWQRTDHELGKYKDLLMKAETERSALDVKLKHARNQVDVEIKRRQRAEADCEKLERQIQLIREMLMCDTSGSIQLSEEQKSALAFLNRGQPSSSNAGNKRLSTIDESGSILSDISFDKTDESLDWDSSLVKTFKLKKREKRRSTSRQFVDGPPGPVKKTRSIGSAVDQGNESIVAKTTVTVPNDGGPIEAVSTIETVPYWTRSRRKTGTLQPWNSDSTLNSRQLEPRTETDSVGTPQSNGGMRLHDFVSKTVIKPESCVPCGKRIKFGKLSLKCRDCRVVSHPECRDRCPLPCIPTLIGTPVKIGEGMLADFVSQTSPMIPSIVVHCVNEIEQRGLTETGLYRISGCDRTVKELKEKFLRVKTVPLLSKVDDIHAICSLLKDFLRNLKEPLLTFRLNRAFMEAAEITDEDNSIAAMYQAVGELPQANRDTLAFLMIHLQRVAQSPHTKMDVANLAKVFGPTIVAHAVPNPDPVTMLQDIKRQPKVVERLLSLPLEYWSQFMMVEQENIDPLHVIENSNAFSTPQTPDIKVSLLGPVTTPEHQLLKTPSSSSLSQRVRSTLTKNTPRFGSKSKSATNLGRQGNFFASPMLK

[5] = Luminescence Cell-Based Dose Retest to Confirm Inhibitors of Cancer Stem Cells. [Related pubchem assays (depositor defined):AID2717, AID2721]; type: functional; details: Homo sapiens
Cytochrome P450 1A2 = molecular target: T5, Cytochrome P450 1A2 (Homo sapiens, UniProt P05177);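 note: PubChem cytochrome P450 panel assay, CYP1A2 panel member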
T5 sequence (P05177 whole entry): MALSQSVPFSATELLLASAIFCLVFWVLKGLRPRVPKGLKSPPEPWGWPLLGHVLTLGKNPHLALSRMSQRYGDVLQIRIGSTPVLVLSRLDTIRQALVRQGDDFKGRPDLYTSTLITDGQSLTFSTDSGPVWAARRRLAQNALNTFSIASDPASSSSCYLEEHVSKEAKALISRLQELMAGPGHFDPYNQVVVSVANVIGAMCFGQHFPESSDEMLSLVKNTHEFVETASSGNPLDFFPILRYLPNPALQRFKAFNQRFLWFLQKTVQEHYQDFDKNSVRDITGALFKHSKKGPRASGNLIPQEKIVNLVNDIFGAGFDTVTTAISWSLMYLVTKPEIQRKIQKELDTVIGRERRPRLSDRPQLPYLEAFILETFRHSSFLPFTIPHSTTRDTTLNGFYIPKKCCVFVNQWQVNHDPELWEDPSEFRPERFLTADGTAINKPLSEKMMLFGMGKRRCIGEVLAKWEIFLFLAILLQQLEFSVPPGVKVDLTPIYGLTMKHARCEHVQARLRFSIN

Cytochrome P450 3A4 = Cytochrome P450 3A4 (Homo sapiens, UniProt P08684);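 note: CYP3A4 tested as one member of a cytochrome P450 panel screen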
Cytochrome P450 2C9 = Cytochrome P450 2C9 (Homo sapiens, UniProt P11712)
Cytochrome P450 2C19 = Cytochrome P450 2C19 (Homo sapiens, UniProt P33261); experiment: Cytochrome panel assay with activity outcomes. Panel member name: p450-cyp2c19 Compounds with AC50 equal or less than 10 uM are considered active; type: functional; details: read-out: AC50
Sequence of Cytochrome P450 2C19 (P33261 whole entry): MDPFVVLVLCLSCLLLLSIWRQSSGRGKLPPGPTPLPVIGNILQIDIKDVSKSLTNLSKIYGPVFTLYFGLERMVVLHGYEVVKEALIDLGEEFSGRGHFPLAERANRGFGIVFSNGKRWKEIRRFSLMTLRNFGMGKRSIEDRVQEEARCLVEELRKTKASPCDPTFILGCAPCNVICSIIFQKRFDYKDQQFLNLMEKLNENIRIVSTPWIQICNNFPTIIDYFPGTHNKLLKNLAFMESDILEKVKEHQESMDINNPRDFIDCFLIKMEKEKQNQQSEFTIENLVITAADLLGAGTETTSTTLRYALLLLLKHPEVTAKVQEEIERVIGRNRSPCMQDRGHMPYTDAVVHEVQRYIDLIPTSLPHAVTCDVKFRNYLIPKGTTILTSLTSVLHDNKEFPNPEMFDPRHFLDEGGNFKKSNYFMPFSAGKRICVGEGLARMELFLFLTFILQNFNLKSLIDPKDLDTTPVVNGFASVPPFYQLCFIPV

Sequence of Cytochrome P450 2C9 (P11712 whole entry): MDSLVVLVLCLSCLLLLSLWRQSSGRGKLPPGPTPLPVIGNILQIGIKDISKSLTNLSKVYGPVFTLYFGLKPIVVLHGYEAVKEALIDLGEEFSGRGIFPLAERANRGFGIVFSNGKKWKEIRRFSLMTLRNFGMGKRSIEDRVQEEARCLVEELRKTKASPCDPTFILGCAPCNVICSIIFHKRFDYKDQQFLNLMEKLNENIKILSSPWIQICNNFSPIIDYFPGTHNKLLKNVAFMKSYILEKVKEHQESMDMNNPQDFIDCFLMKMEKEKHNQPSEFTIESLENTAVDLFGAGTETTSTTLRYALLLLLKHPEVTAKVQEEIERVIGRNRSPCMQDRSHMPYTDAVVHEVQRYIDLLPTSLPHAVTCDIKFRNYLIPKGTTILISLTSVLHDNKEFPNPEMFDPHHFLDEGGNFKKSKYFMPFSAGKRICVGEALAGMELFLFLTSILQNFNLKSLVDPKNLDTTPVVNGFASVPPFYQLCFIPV
Sequence of Cytochrome P450 3A4 (P08684 whole entry): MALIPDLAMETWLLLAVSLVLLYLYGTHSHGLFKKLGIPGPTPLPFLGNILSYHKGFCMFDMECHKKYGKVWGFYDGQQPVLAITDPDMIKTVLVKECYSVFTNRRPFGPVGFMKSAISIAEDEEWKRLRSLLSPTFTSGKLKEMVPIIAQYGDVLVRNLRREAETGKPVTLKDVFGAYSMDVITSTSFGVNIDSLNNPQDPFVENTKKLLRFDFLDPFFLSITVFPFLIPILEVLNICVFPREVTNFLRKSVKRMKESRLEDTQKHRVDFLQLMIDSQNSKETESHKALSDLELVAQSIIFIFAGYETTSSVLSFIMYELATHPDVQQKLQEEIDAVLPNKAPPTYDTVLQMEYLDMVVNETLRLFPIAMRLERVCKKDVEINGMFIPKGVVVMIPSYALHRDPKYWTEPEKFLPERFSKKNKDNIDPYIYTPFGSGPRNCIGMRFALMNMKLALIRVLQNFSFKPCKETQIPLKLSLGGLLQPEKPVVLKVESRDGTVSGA

Row | SMILES | EC50 [2] | EC50 (Streptokinase A) | EC50 (Streptococcus) | also measured
1 | O=C(NCc1ccc(OC(F)(F)F)cc1)c1cccc2c1C(=O)c1ccc(N3CCC(Cc4ccccc4)CC3)cc1S2(=O)=O |  |  |  | EC50 [1]: 8.45 µM (active)
2 | Cc1cc(C(C)(C)C)cc(C)c1COC(=O)c1cccnc1 | 15.8 µM (active) | > 150 µM (not active) | > 150 µM (not active) | 
3 | CCOC(=O)c1c(C)n(C)c2ccc(OC)c(NC(=O)CN3CCSCC3)c12 |  |  |  | EC50 [3]: > 195 µM (not active)
4 | CC(C)(C)n1nnnc1CN1CCC(NC(=O)NC2CCCCC2)CC1 |  |  |  | EC50 [3]: 33.9 µM (active)
5 | Cc1ccc(-c2cc(-c3ccccc3Cl)[nH]n2)c(O)c1 | 6.71 µM (active) | 20.1 µM (inconclusive) | 13.6 µM (active) | 
6 | CCC(C(=O)NCC1CCCO1)n1nc(C)c2sc3ccccc3c2c1=O (stereo not drawn) | > 150 µM (not active) | > 150 µM (not active) | > 150 µM (not active) | 
7 | c1ccc(OCc2nc3c4c(ncn3n2)-c2ccccc2CC42CCCC2)cc1 | 114 µM (active) | 22 µM (active) | > 150 µM (not active) | 
8 | CCCn1cc(CN2CCC(n3nccc3NC(=O)c3ccccc3)CC2)c(C)n1 | > 150 µM (not active) | > 150 µM (not active) | > 150 µM (not active) | 
9 | O=C(CNC(=O)C1COc2ccccc2O1)N/N=C/c1ccc(O)cc1O (stereo not drawn) |  |  |  | IC50 [4]: 71.7 µM (active); AC50 [5]: 6.23 µM (active)
10 | O=C(CNCC1CCCO1)Nc1ccc(N2CCCCCC2)cc1 (stereo not drawn) |  |  |  | IC50 [4]: 62.7 µM (active)
11 | C/C=C(\C)C(=O)OC1CC(C)(C)C[C@H]2C3=CC[C@@H]4[C@@]5(C)CCC(O[C@@H]6O[C@@H](C(=O)O)[C@@H](O)C(O[C@@H]7OC[C@H](O)[C@@H](O)[C@@H]7O[C@@H]7OC(CO)C(O)[C@@H](O)[C@@H]7O)C6O[C@@H]6OC(CO)C(O)C(O)C6O)[C@@](C)(CO)[C@@H]5CC[C@]4(C)[C@]3(C)CC(O)[C@@]12CO (stereo partly drawn) |  |  |  | EC50 [1]: 11.4 µM (active)
12 | CO[C@@]1(NC(=O)Cc2cccs2)C(=O)N2C(C(=O)O)=C(COC(N)=O)CS[C@@H]21 [CEFOXITIN SODIUM] | 5.58 µM (active) | > 150 µM (not active) | 16.2 µM (active) | 
13 | N#Cc1c(NC(=S)NC(=O)C2CCCC2)sc2c1CCCCC2 | 8.59 µM (active) | 2.9 µM (active) | 27.1 µM (active) | 
14 | O=S(=O)(c1ccc2ccccc2c1)N1CCN(c2ccc(O)cc2)CC1 |  |  |  | IC50 [4]: 35.8 µM (active); AC50 [5]: 6.17 µM (active)
15 | COc1cc(OC)c(OC)cc1/C=N/N(C)c1ccccc1 |  |  |  | IC50 [4]: 43.7 µM (active)
16 | c1ccc(-c2nc(C3CCCCC3)c3sccc3n2)cc1 | 4.26 µM (active) | 23.9 µM (active) | 15.5 µM (active) | 
17 | COc1cc(C)ccc1NC(=O)Cc1csc(NC(=O)Nc2ccccc2OC)n1 | 15.4 µM (active) | 104 µM (active) | > 150 µM (not active) | 
18 | CCn1c(-c2ccccc2)c[nH]c1=S |  | > 150 µM (not active) |  | 
19 | Cn1c(=O)n(C)c2cc(/C=N/NC(=O)c3ccc(Cl)cc3Cl)ccc21 |  |  |  | AC50 (Cytochrome P450 1A2): 14.1 µM (inconclusive); AC50 (Cytochrome P450 3A4): 0.0398 µM (inconclusive); AC50 (Cytochrome P450 2C9): 39.8 µM (inconclusive)
20 | Nc1cc(C(F)(F)F)ccc1N1CCOCC1 |  |  |  | IC50 [4]: 29.9 µM (active)
21 | COc1ccc(CNC(=O)CN(C)Cc2ccc(C(C)(C)C)cc2)cc1 |  |  |  | IC50 [4]: 106 µM (active)
22 | C/C(=N\NC(=O)C1CC1c1ccccc1)c1cccs1 (stereo not drawn) |  |  |  | AC50 (Cytochrome P450 1A2): 15.8 µM (inconclusive); AC50 (Cytochrome P450 3A4): 8.91 µM (inconclusive); AC50 (Cytochrome P450 2C19): 2.24 µM (inconclusive); AC50 (Cytochrome P450 2C9): 11.2 µM (inconclusive)
23 | COc1cccc(Cn2c(=O)c(-c3cccs3)nc3cnc(OCc4ccccc4)nc32)c1 |  |  |  | AC50 (Cytochrome P450 1A2): 1.58 µM (inconclusive); AC50 (Cytochrome P450 3A4): 7.94 µM (inconclusive); AC50 (Cytochrome P450 2C9): 0.631 µM (inconclusive)
24 | COc1ccc(-c2c(C#N)c(N)nc3sc(C(=O)c4ccccc4)c(N)c23)cc1 | 5.29 µM (active) | > 150 µM (not active) | > 150 µM (not active) | 
25 | COc1cc(C=C2NC(=O)NC2=O)ccc1O |  |  |  | IC50 [4]: 19 µM (active)
26 | O=C(CCN1CCCCCC1)Nc1ccc2c(c1)OCCO2 |  |  |  | IC50 [4]: 338 µM (active)
27 | COc1cnc(-c2ccccn2)nc1Oc1ccccc1 | > 150 µM (not active) | > 150 µM (not active) | > 150 µM (not active) | 
28 | Cc1nn(-c2ccccc2)c(Cl)c1C1C(C#N)=C(N)OC2=C1C(=O)CC(C)(C)C2 (stereo not drawn) | 1.4 µM (active) | > 150 µM (not active) | 16.1 µM (active) | 
29 | O=[N+]([O-])c1ccc(-c2ccc(/C=N/Nc3nc(N4CCCC4)nc(N4CCCC4)n3)o2)cc1 |  |  |  | EC50 [1]: 2.8 µM (active)
30 | Cc1ccsc1/C=C1\Oc2cc(O)ccc2C1=O |  |  |  | EC50 [1]: 11.1 µM (active)
